{"source": "ChEMBL document CHEMBL5696442", "about": "“Discovery of type II inhibitors of TGFβ-activated kinase 1 (TAK1) and mitogen-activated protein kinase kinase kinase kinase 2 (MAP4K2)” (J Med Chem, 2015)", "key": {"[1]": {"target": "Receptor tyrosine-protein kinase erbB-2 (Homo sapiens) (UniProt P04626)", "sequence (P04626 whole entry)": "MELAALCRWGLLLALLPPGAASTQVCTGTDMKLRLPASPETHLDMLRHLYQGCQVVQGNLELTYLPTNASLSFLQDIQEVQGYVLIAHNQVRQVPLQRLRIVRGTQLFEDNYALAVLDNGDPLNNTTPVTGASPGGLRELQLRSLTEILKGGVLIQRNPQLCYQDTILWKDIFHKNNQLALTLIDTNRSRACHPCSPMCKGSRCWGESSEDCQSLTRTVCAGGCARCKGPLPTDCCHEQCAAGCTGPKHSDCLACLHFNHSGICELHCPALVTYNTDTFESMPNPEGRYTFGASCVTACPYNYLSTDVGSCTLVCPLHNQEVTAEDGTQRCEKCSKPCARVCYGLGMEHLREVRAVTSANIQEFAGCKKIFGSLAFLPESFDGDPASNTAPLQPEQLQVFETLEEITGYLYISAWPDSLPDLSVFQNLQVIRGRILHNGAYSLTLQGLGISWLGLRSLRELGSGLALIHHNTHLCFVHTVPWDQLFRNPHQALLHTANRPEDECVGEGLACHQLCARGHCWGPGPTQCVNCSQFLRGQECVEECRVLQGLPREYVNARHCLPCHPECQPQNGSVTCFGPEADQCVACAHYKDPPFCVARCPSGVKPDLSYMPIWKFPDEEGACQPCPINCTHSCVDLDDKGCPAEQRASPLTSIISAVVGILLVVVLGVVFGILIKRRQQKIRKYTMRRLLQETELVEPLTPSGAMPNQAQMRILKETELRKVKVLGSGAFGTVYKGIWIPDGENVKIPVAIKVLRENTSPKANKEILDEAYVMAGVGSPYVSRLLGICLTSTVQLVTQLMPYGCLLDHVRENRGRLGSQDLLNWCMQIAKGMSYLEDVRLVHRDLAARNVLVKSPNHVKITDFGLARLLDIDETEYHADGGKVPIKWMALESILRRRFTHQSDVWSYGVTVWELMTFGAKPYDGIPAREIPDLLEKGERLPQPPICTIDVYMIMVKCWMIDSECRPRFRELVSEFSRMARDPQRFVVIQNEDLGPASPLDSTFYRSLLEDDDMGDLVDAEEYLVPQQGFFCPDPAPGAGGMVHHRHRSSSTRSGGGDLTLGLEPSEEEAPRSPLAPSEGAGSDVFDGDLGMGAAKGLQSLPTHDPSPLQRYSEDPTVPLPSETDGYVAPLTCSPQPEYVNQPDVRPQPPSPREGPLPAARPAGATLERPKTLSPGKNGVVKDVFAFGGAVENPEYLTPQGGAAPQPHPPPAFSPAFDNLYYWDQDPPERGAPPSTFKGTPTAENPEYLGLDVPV", "experiment": "Inhibition of ERBB2 (unknown origin) at 1 uM by Ambit Kinomescan binding assay relative to control"}, "[2]": {"target": "Vascular endothelial growth factor receptor 3 (Homo sapiens) (UniProt P35916)", "sequence (P35916 whole entry)": "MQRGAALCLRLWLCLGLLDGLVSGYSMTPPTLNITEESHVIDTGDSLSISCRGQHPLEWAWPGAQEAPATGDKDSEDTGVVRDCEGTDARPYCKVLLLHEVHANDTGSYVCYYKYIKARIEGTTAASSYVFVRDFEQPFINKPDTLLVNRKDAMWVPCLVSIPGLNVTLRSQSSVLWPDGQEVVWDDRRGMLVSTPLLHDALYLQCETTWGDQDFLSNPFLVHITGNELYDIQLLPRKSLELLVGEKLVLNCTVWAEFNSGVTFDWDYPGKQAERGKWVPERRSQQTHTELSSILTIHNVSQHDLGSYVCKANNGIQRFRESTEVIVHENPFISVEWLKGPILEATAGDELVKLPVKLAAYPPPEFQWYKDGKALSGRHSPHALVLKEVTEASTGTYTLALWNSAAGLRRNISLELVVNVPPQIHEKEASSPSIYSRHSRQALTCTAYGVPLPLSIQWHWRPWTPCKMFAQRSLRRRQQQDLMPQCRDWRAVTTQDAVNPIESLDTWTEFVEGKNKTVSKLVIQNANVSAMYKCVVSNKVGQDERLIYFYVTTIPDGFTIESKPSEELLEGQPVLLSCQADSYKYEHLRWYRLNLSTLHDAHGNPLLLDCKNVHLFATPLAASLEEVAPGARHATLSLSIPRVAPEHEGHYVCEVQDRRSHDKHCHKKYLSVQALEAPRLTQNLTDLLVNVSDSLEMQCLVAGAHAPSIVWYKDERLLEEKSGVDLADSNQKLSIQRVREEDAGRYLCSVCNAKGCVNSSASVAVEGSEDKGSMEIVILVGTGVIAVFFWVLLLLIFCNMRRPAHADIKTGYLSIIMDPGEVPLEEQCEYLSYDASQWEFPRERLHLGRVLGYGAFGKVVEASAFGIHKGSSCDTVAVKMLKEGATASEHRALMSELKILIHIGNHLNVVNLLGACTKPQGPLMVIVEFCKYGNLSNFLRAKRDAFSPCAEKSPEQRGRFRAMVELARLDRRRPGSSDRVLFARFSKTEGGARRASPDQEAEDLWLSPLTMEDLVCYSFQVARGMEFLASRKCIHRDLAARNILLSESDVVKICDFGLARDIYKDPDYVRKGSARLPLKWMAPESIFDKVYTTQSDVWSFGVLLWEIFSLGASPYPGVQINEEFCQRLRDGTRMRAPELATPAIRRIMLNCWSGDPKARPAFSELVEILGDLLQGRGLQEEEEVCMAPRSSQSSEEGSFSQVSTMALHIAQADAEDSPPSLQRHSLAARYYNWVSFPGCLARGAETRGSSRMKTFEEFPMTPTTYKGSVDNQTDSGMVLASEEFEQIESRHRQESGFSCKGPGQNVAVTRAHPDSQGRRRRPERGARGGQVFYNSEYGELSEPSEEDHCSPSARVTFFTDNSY", "experiment": "Inhibition of FLT4 (unknown origin) at 1 uM by Ambit Kinomescan binding assay relative to control; values are per cent of control"}, "[3]": {"target": "Glycogen synthase kinase-3 beta (Homo sapiens) (UniProt P49841)", "sequence (P49841 whole entry, looked up)": "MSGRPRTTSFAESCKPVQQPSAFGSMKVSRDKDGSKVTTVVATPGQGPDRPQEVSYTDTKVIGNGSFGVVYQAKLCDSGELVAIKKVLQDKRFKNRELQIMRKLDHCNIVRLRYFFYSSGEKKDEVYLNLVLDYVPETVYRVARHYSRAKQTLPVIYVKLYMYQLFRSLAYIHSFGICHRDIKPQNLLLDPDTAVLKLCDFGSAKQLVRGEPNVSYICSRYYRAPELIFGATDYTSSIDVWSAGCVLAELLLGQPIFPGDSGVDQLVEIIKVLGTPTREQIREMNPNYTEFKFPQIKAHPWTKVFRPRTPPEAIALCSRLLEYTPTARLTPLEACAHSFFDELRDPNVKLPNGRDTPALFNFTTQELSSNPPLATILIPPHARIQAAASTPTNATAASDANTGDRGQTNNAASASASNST", "experiment": "Inhibition of GSK3B Lys2 labeling site in human A-375 cells at 0.05 uM by KiNativ Profiling analysis relative to control", "assay_type": "cell-based"}, "[4]": {"target": "Serine/threonine-protein kinase 16 (Homo sapiens) (UniProt O75716)", "sequence (O75716 whole entry)": "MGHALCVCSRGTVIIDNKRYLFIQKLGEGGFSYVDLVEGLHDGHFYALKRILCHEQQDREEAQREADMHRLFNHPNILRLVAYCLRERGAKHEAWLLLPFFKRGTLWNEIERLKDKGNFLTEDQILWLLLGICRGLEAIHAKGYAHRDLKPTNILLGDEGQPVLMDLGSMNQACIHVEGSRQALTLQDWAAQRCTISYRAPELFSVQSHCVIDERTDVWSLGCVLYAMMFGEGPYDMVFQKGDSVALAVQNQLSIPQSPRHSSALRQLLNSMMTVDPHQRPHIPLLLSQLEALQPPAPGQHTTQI", "experiment": "Inhibition of MPSK1 Lys2 labeling site in human A-375 cells at 0.05 uM by KiNativ Profiling analysis relative to control", "assay_type": "cell-based"}, "[5]": {"target": "T1, Mitogen-activated protein kinase kinase kinase kinase 2 (Homo sapiens) (UniProt Q12851)", "T1 sequence (whole entry)": "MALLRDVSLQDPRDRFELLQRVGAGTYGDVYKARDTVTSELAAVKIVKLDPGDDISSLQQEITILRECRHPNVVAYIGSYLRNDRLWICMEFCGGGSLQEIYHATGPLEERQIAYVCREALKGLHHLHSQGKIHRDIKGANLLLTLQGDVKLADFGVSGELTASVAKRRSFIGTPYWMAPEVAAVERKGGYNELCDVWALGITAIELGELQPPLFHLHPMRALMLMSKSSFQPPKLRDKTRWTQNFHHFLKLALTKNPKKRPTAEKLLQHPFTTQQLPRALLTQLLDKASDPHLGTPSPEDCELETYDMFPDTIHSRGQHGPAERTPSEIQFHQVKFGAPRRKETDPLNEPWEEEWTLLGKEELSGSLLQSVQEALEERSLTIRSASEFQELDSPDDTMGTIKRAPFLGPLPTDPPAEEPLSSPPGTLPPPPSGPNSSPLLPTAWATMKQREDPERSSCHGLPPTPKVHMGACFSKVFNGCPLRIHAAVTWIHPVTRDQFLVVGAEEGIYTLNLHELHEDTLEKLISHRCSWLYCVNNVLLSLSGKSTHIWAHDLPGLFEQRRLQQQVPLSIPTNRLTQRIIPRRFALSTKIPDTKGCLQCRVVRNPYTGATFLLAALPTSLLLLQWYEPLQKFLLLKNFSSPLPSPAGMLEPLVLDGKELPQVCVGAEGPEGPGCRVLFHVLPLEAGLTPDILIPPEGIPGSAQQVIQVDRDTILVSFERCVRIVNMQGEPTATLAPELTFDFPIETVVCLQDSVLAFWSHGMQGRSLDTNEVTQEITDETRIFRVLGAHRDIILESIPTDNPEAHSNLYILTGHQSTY", "experiment": "Inhibition of MAP4K2 Lys2 labeling site in human A-375 cells at 5 uM by KiNativ Profiling analysis relative to control", "assay_type": "cell-based"}, "[6]": {"target": "Ribosomal protein S6 kinase alpha-2 (Homo sapiens) (UniProt Q15349)", "sequence (Q15349 whole entry, the tested form may be a part)": "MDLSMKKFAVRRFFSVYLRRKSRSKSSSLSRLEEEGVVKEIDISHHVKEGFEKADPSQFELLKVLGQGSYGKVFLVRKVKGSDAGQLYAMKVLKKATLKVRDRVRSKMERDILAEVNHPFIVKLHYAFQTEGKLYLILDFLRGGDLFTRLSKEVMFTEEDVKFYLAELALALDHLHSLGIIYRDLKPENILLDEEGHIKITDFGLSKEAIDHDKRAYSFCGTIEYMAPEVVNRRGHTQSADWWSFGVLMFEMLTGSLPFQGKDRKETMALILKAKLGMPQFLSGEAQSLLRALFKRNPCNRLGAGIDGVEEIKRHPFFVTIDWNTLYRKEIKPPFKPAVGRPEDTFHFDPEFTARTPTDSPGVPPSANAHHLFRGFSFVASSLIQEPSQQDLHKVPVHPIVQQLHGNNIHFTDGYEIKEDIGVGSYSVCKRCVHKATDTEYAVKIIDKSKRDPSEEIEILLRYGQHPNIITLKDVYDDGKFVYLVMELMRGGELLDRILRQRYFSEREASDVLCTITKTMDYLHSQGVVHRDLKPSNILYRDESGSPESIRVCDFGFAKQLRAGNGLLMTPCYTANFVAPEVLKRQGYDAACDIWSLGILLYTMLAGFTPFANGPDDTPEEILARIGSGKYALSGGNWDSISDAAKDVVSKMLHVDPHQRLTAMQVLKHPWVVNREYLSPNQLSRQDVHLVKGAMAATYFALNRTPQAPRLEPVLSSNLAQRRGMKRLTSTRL", "experiment": "Inhibition of N-terminal RPS6KA2 kinase domain 1 (unknown origin) at 10 uM by Ambit Kinomescan binding assay"}, "[7]": {"target": "T2, Serine/threonine-protein kinase LATS2 (Homo sapiens) (UniProt Q9NRM7)", "T2 sequence (whole entry)": "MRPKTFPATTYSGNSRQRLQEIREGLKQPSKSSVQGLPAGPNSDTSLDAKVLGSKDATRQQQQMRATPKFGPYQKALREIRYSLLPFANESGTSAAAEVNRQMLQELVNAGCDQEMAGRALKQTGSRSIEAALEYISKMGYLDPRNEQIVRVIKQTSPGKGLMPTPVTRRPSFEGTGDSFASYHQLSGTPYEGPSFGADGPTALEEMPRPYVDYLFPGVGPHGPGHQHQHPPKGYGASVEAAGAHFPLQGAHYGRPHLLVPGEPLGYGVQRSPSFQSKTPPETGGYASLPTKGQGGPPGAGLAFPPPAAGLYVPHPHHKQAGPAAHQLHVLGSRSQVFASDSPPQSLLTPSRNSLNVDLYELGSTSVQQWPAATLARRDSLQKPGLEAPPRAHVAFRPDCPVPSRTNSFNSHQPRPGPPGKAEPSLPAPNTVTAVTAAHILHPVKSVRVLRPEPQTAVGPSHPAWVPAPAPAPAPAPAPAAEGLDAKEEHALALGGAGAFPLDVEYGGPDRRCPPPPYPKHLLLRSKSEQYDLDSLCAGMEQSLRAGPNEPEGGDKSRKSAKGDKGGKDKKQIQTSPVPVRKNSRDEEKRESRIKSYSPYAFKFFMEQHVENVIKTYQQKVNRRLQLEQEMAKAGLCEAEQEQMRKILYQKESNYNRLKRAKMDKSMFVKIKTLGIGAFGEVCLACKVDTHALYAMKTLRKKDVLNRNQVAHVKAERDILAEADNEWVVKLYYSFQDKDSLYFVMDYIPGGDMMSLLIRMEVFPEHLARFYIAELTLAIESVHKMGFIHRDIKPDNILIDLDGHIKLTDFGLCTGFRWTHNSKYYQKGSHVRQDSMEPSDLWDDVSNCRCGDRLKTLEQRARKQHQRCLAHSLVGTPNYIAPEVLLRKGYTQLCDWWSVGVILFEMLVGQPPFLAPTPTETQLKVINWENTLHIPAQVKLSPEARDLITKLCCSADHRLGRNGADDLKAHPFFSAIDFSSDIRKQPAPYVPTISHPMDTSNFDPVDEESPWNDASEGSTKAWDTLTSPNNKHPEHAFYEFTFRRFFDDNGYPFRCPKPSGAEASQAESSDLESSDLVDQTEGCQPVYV", "experiment": "Inhibition of LATS2 (unknown origin) at 10 uM by Ambit Kinomescan binding assay relative to control"}, "[8]": {"target": "Cyclin-dependent kinase 1 (Homo sapiens) (UniProt P06493)", "sequence (P06493 whole entry, looked up)": "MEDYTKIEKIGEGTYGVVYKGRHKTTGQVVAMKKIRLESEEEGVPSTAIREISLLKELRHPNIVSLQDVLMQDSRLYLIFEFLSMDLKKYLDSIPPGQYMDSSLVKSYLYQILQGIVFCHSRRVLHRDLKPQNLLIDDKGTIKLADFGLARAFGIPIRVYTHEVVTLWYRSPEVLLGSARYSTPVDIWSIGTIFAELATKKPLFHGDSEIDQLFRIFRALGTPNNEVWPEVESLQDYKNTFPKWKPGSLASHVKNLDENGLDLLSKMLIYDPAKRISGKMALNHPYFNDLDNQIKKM", "experiment": "Inhibition of CDC2 K2 labeling site harbouring DLKPQNLLIDDKGTIK in human Huh-7 cells at 1 uM by KiNativ Profiling analysis relative to control", "assay_type": "cell-based"}, "[9]": {"target": "T3, Serine/threonine-protein kinase ULK3 (Homo sapiens) (UniProt Q6PHR2)", "T3 sequence (whole entry)": "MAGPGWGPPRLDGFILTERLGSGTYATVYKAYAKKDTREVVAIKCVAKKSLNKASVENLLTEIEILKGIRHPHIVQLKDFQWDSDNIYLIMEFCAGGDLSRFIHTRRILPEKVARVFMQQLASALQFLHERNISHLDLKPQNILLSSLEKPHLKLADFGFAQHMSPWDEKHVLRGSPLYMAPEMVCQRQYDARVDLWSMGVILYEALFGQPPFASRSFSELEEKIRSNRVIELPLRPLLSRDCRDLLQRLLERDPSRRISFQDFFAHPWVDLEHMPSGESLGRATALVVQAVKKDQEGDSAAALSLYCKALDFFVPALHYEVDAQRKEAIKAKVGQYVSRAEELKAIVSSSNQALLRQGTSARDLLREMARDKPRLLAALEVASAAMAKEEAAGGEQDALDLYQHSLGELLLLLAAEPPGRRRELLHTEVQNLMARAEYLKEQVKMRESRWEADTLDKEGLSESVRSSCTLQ", "experiment": "Inhibition of ULK3 Lys1 labeling site in human Huh-7 cell lysate at 1 uM by KiNativ Profiling analysis relative to control", "assay_type": "subcellular"}}, "note": "Activity calls are given as the source filed them. The rule behind the calls is not given here.", "data": [{"smiles": "CCN1CCN(Cc2ccc(NC(=O)c3ccc(C)c(/C=C/c4cnc5[nH]ccc5c4OC)c3)cc2C(F)(F)F)CC1", "values": [{"measurement": "inhibition", "setting": "[1]", "value": 19, "unit": "%"}, {"measurement": "residual activity", "setting": "[2]", "value": 26, "unit": "%"}, {"measurement": "inhibition", "setting": "[3]", "value": 29.8, "unit": "%"}, {"measurement": "inhibition", "setting": "[4]", "value": 14.1, "unit": "%"}]}, {"smiles": "CCN1CCN(Cc2ccc(NC(=O)c3ccc(C)c(Oc4ccnc5[nH]ccc45)c3)cc2C(F)(F)F)CC1", "values": [{"measurement": "inhibition", "setting": "[5]", "value": 94, "unit": "%"}, {"measurement": "inhibition", "setting": "[6]", "value": "inactive"}, {"measurement": "inhibition", "setting": "[7]", "value": 13, "unit": "%"}, {"measurement": "inhibition", "setting": "[8]", "value": 7.9, "unit": "%"}]}, {"smiles": "CNc1cc(Oc2cc(C(=O)Nc3cc(N4CCN(C)CC4)cc(C(F)(F)F)c3)ccc2C)ncn1", "values": [{"measurement": "inhibition", "setting": "[9]", "value": -5.1, "unit": "%"}]}]}
